According to publication PMC8119466, “A screen of FDA-approved drugs identifies inhibitors of protein tyrosine phosphatase 4A3 (PTP4A3 or PRL-3)” (Scientific Reports, 2021):
Structures can show the parent of a compound that is named as a salt. Where two headings read alike, the source gives them in different places.

Key:
Assay type in all cases: biochemical
[1] = biological target: T1, recombinant PRL-3 (Homo sapiens, UniProt O75365); experiment: In vitro phosphatase assay (DiFMUP hydrolysis), PRL-3
T1 construct: 6xHis (N, cleaved yes); made in house; host or cells: E. coli One Shot BL21 Star
T1 sequence (O75365 whole entry): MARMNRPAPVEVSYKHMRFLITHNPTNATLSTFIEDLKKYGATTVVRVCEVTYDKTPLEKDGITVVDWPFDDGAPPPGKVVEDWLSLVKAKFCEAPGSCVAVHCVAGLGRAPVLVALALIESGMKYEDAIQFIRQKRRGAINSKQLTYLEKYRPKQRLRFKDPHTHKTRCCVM

[2] = biological target: T2, recombinant PRL-2 (Homo sapiens, UniProt Q12974); experiment: In vitro phosphatase assay (DiFMUP hydrolysis), PRL-2;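 note: PRL-2 activity read as DiFMUP hydrolysis after 20 min at room temperature with drug, enzyme first pre-reduced at 4 °C for 20 min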
T2 construct: 6xHis (N, cleaved yes); made in house; host or cells: E. coli One Shot BL21 Star
T2 sequence (Q12974 1-167): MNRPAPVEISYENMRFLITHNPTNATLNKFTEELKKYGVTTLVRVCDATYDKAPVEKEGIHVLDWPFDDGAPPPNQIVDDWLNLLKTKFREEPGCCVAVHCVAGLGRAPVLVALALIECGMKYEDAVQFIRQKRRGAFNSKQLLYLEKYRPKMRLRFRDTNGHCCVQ
Experimental: Briefly, protein was diluted in reaction buffer and allowed to incubate at 4 °C for 20 min to allow for full reduction of the active site. DiFMUP, drug, and protein were added, and plates were incubated for 20 min at room temperature. Fluorescence intensities were measured on a Cytation 5 plate reader (Biotek) at an EX:360 nm and EM:460 nm. […] Inhibition selectivity for PRLs over a panel of other phosphatases was determined using PhosphataseProfiler (Eurofins, Cat # PP260).

[3] = biological target: T3, recombinant PRL-1 (Homo sapiens, UniProt Q93096); experiment: In vitro phosphatase assay (DiFMUP hydrolysis), PRL-1
T3 construct: 6xHis (N, cleaved yes); made in house; host or cells: E. coli One Shot BL21 Star
T3 sequence (Q93096 1-173): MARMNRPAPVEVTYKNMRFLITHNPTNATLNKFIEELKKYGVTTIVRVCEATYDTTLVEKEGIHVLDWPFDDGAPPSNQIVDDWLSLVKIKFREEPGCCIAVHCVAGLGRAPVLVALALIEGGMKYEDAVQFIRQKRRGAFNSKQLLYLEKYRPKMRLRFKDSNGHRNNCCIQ

[4] = FDA-approved drug screen, compared to DMSO

Row | Compound | % Phosphatase Activity (compared to DMSO) PRL-3 [1, 4] [%] | % Phosphatase Activity (compared to DMSO) PRL-2 [2, 4] [%] | % Phosphatase Activity (compared to DMSO) PRL-1 [3, 4] [%] | IC50 ([1]; 2.5 µM protein, DiFMUP at KM, read-out: Calculated IC50, PRL-3 phosphatase activity) [µM] | IC50 ([2]; 2.5 µM protein, DiFMUP at KM, read-out: Calculated IC50, PRL-2 phosphatase activity) [µM] | IC50 ([3]; 2.5 µM protein, DiFMUP at KM, read-out: Calculated IC50, PRL-1 phosphatase activity) [µM] | % Phosphatase Activity (compared to DMSO) PRL-3 [1] [%] | % Phosphatase Activity (compared to DMSO) PRL-2 [2] [%] | % Phosphatase Activity (compared to DMSO) PRL-1 [3] [%]
1 | N=C(N)NC(=O)Cc1c(Cl)cccc1Cl [Guanfacine Hydrochloride] | 96 | 84 | 103 | – | – | – | – | – | –
2 | Cl.N=C(N)N [Guanidine HCl] | 86 | 108 | 103 | – | – | – | – | – | –
3 | CCC(=O)O[C@]1(C(=O)CCl)[C@@H](C)C[C@H]2[C@@H]3C[C@H](F)C4=CC(=O)C=C[C@]4(C)[C@@]3(F)[C@@H](O)C[C@@]21C [Halobetasol Propionate] | 77 | 88 | 88 | – | – | – | – | – | –
4 | O=C(CCCN1CCC(O)(c2ccc(Cl)cc2)CC1)c1ccc(F)cc1 [Haloperidol] | 93 | 100 | 93 | – | – | – | – | – | –
5 | FC(F)(F)C(Cl)Br (stereo not drawn) [Halothane] | 79 | 95 | 102 | – | – | – | – | – | –
6 | Oc1c(Cl)cc(Cl)c(Cl)c1Cc1c(O)c(Cl)cc(Cl)c1Cl [Hexachlorophene, reference compound] | -4 | -9 | -2.83 | 13 ± 1 | 35 ± 10 | 31 ± 4 | – | – | –
7 | C[N+](C)(C)CCCCCC[N+](C)(C)C [Hexamethonium Bromide] | 84 | 89 | 87 | – | – | – | – | – | –
8 | CCCCCCc1ccc(O)cc1O [Hexylresorcinol] | 84 | 83 | 90 | – | – | – | – | – | –
9 | Cl.Cl.NCCc1c[nH]cn1 [Histamine 2HCl] | – | – | – | – | – | – | 71 | 118 | 97
10 | C[N+]1(C)[C@@H]2CC[C@H]1C[C@@H](OC(=O)C(O)c1ccccc1)C2 (stereo partly drawn) [Homatropine Methylbromide] | 95 | 100 | 107 | – | – | – | – | – | –
11 | NNc1nncc2ccccc12 [Hydralazine HCl] | – | – | – | – | – | – | 87 | 85 | 102
12 | NS(=O)(=O)c1cc2c(cc1Cl)NCNS2(=O)=O [Hydrochlorothiazide] | 76 | 122 | 97 | – | – | – | – | – | –
13 | C[C@]12CCC(=O)C=C1CC[C@@H]1[C@@H]2[C@@H](O)C[C@@]2(C)[C@H]1CC[C@]2(O)C(=O)CO [Hydrocortisone] | 79 | 91 | 102 | – | – | – | – | – | –
14 | CC[C@H]1CN2CC[C@H]1C[C@@H]2[C@@H](O)c1ccnc2ccc(OC)cc12 [Hydroquinidine] | 92 | 120 | 105 | – | – | – | – | – | –
15 | Oc1ccc(O)cc1 [Hydroquinone] | – | – | – | – | – | – | 70 | 91 | 90
16 | CCN(CCO)CCCC(C)Nc1ccnc2cc(Cl)ccc12 (stereo not drawn) [Hydroxychloroquine Sulfate] | 100 | 100 | 96 | – | – | – | – | – | –
17 | CCCCCC(=O)O[C@]1(C(C)=O)CC[C@H]2[C@@H]3CCC4=CC(=O)CC[C@]4(C)[C@H]3CC[C@@]21C [Hydroxyprogesterone caproate] | 73 | 84 | 91 | – | – | – | – | – | –
